The target of one test is T1, CB1 cannabinoid receptor (Rattus norvegicus, UniProt P20272).
T1 construct: membranes were prepared from rat forebrain membranes; from tissue; host or cells: rat forebrain membranes
As to the kind of experiment: CB1 receptor binding assay ([3H] CP-55,940 displacement, rat forebrain membranes). The conditions noted are these: 0.8 nM [3H] CP-55,940, read-out: CB1 (nM) binding affinity (Ki). As to the method:
Some inventive analogs were tested for CB2 receptor binding affinity and for CB1 receptor affinity (to determine selectivity). As used herein, “binding affinity” is represented by the Ki value which is the inhibition constant correlated with the concentration of an analog required to occupy the 50% of the total number (Bmax) of the receptors. The lower the Ki value, the higher the binding affinity. […] For the CB1 receptor binding studies, membranes were prepared from rat forebrain membranes according to the procedure of P. R. Dodd et al, A Rapid Method for Preparing Synaptosomes: Comparison with Alternative Procedures, Brain Res., 107-118 (1981). The binding of the novel analogues to the CB1 cannabinoid receptor was assessed as described in W. A. Devane et al, Determination and Characterization of a Cannabinoid Receptor in a Rat Brain, Mol. Pharmacol., 34, 605-613 (1988) and A. Charalambous et al, 5′-azido Δ^8-THC: A Novel Photoaffinity Label for the Cannabinoid Receptor, J. Med. Chem., 35, 3076-3079 (1992) with the following changes. The above articles are incorporated by reference herein.
Membranes, previously frozen at −80° C., were thawed on ice. To the stirred suspension was added three volumes of TME (25 mM Tris-HCl buffer, 5 mM MgCl2 and 1 mM EDTA) at a pH 7.4. The suspension was incubated at 4° C. for 30 min. At the end of the incubation, the membranes were pelleted and washed three times with TME.
The treated membranes were subsequently used in the binding assay described below. Approximately 30 μg of membranes were incubated in silanized 96-well microtiter plate with TME containing 0.1% essentially fatty acid-free bovine serum albumin (BSA), 0.8 nM [^3H] CP-55,940, and various concentrations of test materials in a final volume of 200 μL. The assays were incubated for 1 hour at 30° C. and then immediately filtered using Packard Filtermate 196 harvester and Whatman GF/C filterplates and washed with wash buffer (TME) containing 0.5% BSA. Radioactivity was detected using MicroScint 20 scintillation cocktail added directly to the dried filterplates, and the filterplates were counted using a Packard Instruments Top-Count. Nonspecific binding was assessed using 100 nM CP-55,940. Data collected from three independent experiments performed with duplicate determinations was normalized between 100% and 0% specific binding for [^3H] CP-55,940, determined using buffer and 100 nM CP-55,940. The normalized data was analyzed using a 4-parameter nonlinear logistic equation to yield IC50 values. Data from at least two independent experiments performed in duplicate was used to calculate IC50 values which were converted to Ki values using the assumptions of Cheng et al, Relationship Between the Inhibition Constant (Ki) and the concentration of Inhibitor which causes 50% Inhibition (IC50) of an Enzymatic Reaction, Biochem. Pharmacol., 22, 3099-3102, (1973), which is incorporated by reference herein.

A further test deals with T2, CB2 receptor (Mus musculus, UniProt P47936).
T2 construct: membranes were prepared from frozen mouse spleen; from tissue; host or cells: frozen mouse spleen membranes
T2 sequence (P47936 whole entry): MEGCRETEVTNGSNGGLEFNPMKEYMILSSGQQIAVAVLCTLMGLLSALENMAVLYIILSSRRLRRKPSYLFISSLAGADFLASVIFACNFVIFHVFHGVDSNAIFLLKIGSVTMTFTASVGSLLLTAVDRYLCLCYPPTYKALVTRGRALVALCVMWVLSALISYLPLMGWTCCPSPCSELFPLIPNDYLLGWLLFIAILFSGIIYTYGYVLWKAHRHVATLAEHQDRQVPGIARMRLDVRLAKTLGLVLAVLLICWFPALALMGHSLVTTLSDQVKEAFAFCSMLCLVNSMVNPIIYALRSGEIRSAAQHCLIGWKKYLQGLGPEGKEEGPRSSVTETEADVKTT
As to the kind of experiment: CB2 receptor binding assay ([3H] CP-55,940 displacement, mouse spleen membranes). As to the method: The treated membranes were subsequently used in the binding assay described below. Approximately 30 μg of membranes were incubated in silanized 96-well microtiter plate with TME containing 0.1% essentially fatty acid-free bovine serum albumin (BSA), 0.8 nM [^3H] […] Radioactivity was detected using MicroScint 20 scintillation cocktail added directly to the dried filterplates, and the filterplates were counted using a Packard Instruments Top-Count. […] Data collected from three independent experiments performed with duplicate determinations was normalized between 100% and 0% specific binding for [^3H] […] The normalized data was analyzed using a 4-parameter nonlinear logistic equation to yield IC50 values.
Silanized centrifuge tubes were used throughout to minimize receptor loss due to adsorption. The CB2 binding assay was conducted in the same manner as for the CB1 binding assay. The binding affinities (Ki) were also expressed in nanomoles (nM).

[1] abbreviates: mouse spleen membranes, [3H] CP-55,940, read-out: CB2 (nM) binding affinity (Ki).

Like-named read-outs stand apart in the source and are kept apart here.

T1 sequence (P20272 whole entry): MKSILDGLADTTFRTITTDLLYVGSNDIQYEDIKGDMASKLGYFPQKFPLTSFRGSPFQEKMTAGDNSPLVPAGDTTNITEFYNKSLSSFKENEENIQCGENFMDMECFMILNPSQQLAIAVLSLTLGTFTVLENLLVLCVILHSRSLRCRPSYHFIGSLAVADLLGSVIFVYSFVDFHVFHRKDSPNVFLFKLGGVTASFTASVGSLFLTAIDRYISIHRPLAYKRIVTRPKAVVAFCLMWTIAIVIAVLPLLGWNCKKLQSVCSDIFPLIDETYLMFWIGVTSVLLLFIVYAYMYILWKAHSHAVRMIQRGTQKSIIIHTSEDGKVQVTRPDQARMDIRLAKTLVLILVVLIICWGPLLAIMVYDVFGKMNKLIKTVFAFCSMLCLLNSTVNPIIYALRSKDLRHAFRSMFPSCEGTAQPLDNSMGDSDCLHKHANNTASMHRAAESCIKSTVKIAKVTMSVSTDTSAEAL

For the molecule `CCCCCCC(C)(C)c1cc(O)c(-c2cc(Cl)cc(Cl)c2)c(O)c1` [Compound 1], the Ki (in general, the dissociation constant of the complex between target and ligand, obtained from inhibition or displacement) came to 2.6 nM at CB1 cannabinoid receptor and 0.6 nM on CB2 receptor (setting [1]).

For the molecule `CCCCCCC(C)(C)c1cc(O)c(-c2cc(C(F)(F)F)cc(C(F)(F)F)c2)c(O)c1` [Compound 2], the Ki amounted to 9.7 nM on CB1 cannabinoid receptor and 0.9 nM on CB2 receptor (setting [1]).

Take `CCCCCCC(C)(C)c1cc(O)c(-c2cc([N+](=O)[O-])cc([N+](=O)[O-])c2)c(O)c1` [Compound 3]: the inhibition constant Ki at CB1 cannabinoid receptor was 199 nM; on CB2 receptor (setting [1]), 3.5 nM.

`CCCCCCC(C)(C)c1cc(O)c(-c2cc(F)cc(F)c2)c(O)c1` [Compound 4]: the Ki is 57.5 nM on CB1 cannabinoid receptor and 8.4 nM at CB2 receptor (setting [1]).

Turning to `CCCCCCC(C)(C)c1cc(O)c(-c2cc(C)ccc2F)c(O)c1` [Compound 5], the Ki was 6.5 nM on CB1 cannabinoid receptor and 2.3 nM on CB2 receptor (setting [1]).

As for `CCCCCCC(C)(C)c1cc(O)c(-c2cc(Cl)ccc2Cl)c(O)c1` [Compound 6], the Ki amounted to 7.7 nM on CB1 cannabinoid receptor and 2.6 nM at CB2 receptor (setting [1]).

As for `CCCCCCC(C)(C)c1cc(O)c(-c2cc(Cl)cc(Cl)c2)c(OC)c1` [Compound 7], the figures for the Ki at CB1 cannabinoid receptor and on CB2 receptor (setting [1]) were 105 nM and 13.9 nM, respectively.

Take `CCCCCCC(C)(C)c1cc(O)c(-c2c(F)cccc2F)c(O)c1` [Compound 8]: the values for the Ki at CB1 cannabinoid receptor and at CB2 receptor (setting [1]) were 40.3 nM and 13.4 nM, respectively.

For `CCCCCCC(C)(C)c1cc(O)c(-c2c(Cl)ccc(Cl)c2Cl)c(O)c1` [Compound 9], the Ki at CB1 cannabinoid receptor was 23.2 nM; at CB2 receptor, 3.4 nM.

As to `CCCCCCC(C)(C)c1cc(O)c(-c2cc(C)c(O)c(C)c2)c(O)c1` [Compound 10], the figures for the Ki on CB1 cannabinoid receptor and on CB2 receptor (setting [1]) were 1360 nM and 15.3 nM, respectively.

For the molecule `CCCCCCC(C)(C)c1cc(O)c(-c2cc(C)c(OC)c(C)c2)c(O)c1` [Compound 11], the Ki worked out at 1080 nM on CB1 cannabinoid receptor and 12.8 nM on CB2 receptor (setting [1]).

As for `CCCCCCC(C)(C)c1cc(O)c(-c2cc(C)c(N)c(C)c2)c(O)c1` [Compound 12], the Ki on CB1 cannabinoid receptor turned out to be 797 nM; on CB2 receptor (setting [1]) it was 8 nM.

Turning to `CCCCCCC(C)(C)c1cc(O)c(-c2ccccc2CO)c(O)c1` [Compound 14], the Ki on CB1 cannabinoid receptor is 53.8 nM; at CB2 receptor (setting [1]) it was 1.4 nM.

With `CCCCCCC(C)(C)c1cc(O)c(-c2cc(O)ccc2CO)c(O)c1` [Compound 15], the figures for the Ki at CB1 cannabinoid receptor and on CB2 receptor were 141 nM and 4.5 nM, respectively.

On to `CCCCCCC(C)(C)c1cc(O)c(-c2cncc(C(=O)OCC)c2)c(O)c1` [Compound 21], for which the Ki on CB1 cannabinoid receptor came to 17.2 nM; on CB2 receptor it was 0.2 nM.

As for `CCCCCCC(C)(C)c1cc(O)c(-c2cccc(C(=O)OCC)c2)c(O)c1` [Compound 22], the Ki was 241 nM on CB1 cannabinoid receptor and 0.8 nM on CB2 receptor (setting [1]).

On to `CCCCCCC(C)(C)c1cc(O)c(-c2cccc(C(C)=O)c2)c(O)c1` [Compound 24], for which the Ki is 297 nM at CB1 cannabinoid receptor and 11.3 nM at CB2 receptor.

`CCCCCCC(C)(C)c1cc(O)c(-c2cc(O)ccc2CCCO)c(O)c1` [Compound 25]: the figures for the Ki at CB1 cannabinoid receptor and at CB2 receptor (setting [1]) were 12.2 nM and 1 nM, respectively.

As for `CCCCCCC(C)(C)c1cc(O)c(-c2cc(F)ccc2CO)c(O)c1` [Compound 26], the Ki was 24.5 nM on CB1 cannabinoid receptor and 1.8 nM on CB2 receptor (setting [1]).

`CCCCCCC(C)(C)c1cc(O)c(-c2cc(CO)ccc2CO)c(O)c1` [Compound 27]: the Ki on CB1 cannabinoid receptor is 29.6 nM; at CB2 receptor (setting [1]), 2.6 nM.

Turning to `CCCCCCC(C)(C)c1cc(O)c(-c2cc(CO)ccc2C)c(O)c1` [Compound 28], the inhibitory constant (Ki) on CB1 cannabinoid receptor amounted to 70.4 nM; on CB2 receptor (setting [1]), 7 nM.

`CCCCCCC(C)(C)c1cc(O)c(-c2ccc(C(=O)OCC)o2)c(O)c1` [Compound 29]: the Ki at CB1 cannabinoid receptor was determined as 3220 nM; on CB2 receptor it was 35.4 nM.

For `CCCCCCC(C)(C)c1cc(O)c(-c2cccc(/C=C/C(=O)OCC)c2)c(O)c1` [Compound 30], the Ki at CB1 cannabinoid receptor amounted to 397 nM; on CB2 receptor (setting [1]), 10 nM.

Regarding `CCCCCCC(C)(C)c1cc(O)c(-c2cccc(C#N)c2)c(O)c1` [Compound 31], the results for the Ki at CB1 cannabinoid receptor and at CB2 receptor (setting [1]) were 20 nM and 1.1 nM, respectively.

`CCCCCCC(C)(C)c1cc(O)c(-c2cc(Br)ccc2CO)c(O)c1` [Compound 32]: the results for the Ki on CB1 cannabinoid receptor and on CB2 receptor were 8.6 nM and 0.7 nM, respectively.

For `CCCCCCCN(C)c1cc(O)c(-c2cc(OC)ccc2C(=O)N(C(C)C)C(C)C)c(OC)c1` [Compound 36], the Ki on CB1 cannabinoid receptor is 1870 nM; at CB2 receptor it was 154 nM.

For the origin of these results see patent US20040087590A1, “Novel biphenyl and biphenyl-like cannabinoids” (University of Connecticut, priority 2002, published 2004).
